Literature values as cited in PMC8637765 (RSC Chemical Biology, 2021).

Test system: cancer cells

## O=C(Cc1ccccc1)Nc1nnc(CCSCCc2nnc(NC(=O)Cc3ccccc3)s2)s1 [BPTES, bis-2-(5-phenylacetamido-1,3,4-thiadiazol-2-yl)ethyl sulfide]
  Growth inhibition at the cellular level: partial growth inhibition

## O=C(Cc1cccc(OC(F)(F)F)c1)Nc1ccc(CCCCc2nnc(NC(=O)Cc3ccccn3)s2)nn1 [CB-839]
  Growth inhibition at the cellular level: partial growth inhibition
